Consider 2 molecules from patent US10799512B2, “Estrogen combination for treatment of multiple sclerosis” (The Regents of the University of California, priority 2014, dated 2020).

Common to all, as to assay type: in vivo, human
Series [1] can be described thus: Estriol blood/serum levels in treated patients. On the procedure:
(§1) Patients also underwent mammograms before and after the study.
Baseline characteristics were similar in both patient groups.
FIG. 6 depicts estriol blood levels induced by treatment with estriol 8 mg per day every day plus norethindrone 0.7 mg a day for 14 days every 3 months.

Series [2] deals with female patients with active relapsing multiple sclerosis. The experiment in a line: Safety and tolerability (gynecological and breast exams, adverse events). The note with it: patients received Copaxone with estriol. Here is the method: 158 patients were randomized to Copaxone® (glatiramer acetate) injections (20 mg/day) and oral estriol (8 mg/day) or to Copaxone® injections and placebo for a 24-month treatment duration. Gynecologists examined the patients before, during, and after the study. Each patient was examined at three- to six-month intervals during the trial. Patients also underwent mammograms before and after the study. In addition, at baseline, three months, six months, 12 months, 18 months, and 24 months, the investigators measured participants' estriol levels, and assessed for MS relapses and MS-related disabilities.
Baseline characteristics were similar in both patient groups. Participants' mean age at entry was approximately 38, and their mean EDSS score at entry was 2.2. […] To ensure breast and uterus safety, every three months the patients took norethindrone 0.7 mg once a day for 14 days.

Series [3] shares this test system. The experiment in a line: Expanded Disability Status Scale (EDSS). The note with it: over 24 months.
Description: as §1
The Expanded Disability Status Scale (EDSS) is a standard composite disability score used in MS trials. Higher scores indicate worse disability. This composite covers a variety of disabilities (including ambulation, vision, cognition, coordination, etc.), but the scoring is not linear and the composite score is understood to be principally an indicator of the level of disability in ambulation.

For series [4] the test system is unchanged. The series is described as follows: Timed 25-foot walk test. To be noted: between-group difference p=0.02; higher time = worse.
Description: as §1
Another clinical disability measure with treatment effects was the timed 25-foot walk test. This test measures how many seconds it takes to walk 25 feet, with higher scores indicating worse disability. […] This beneficial effect of estriol treatment on 25-foot walking times is consistent with the beneficial effect of estriol treatment on EDSS scores since the latter is weighted toward being an indicator of ambulation.

For series [5] the test system is unchanged. The experiment in a line: Brain MRI, gadolinium enhancing lesions. The note with it: at month 12; p=0.14.
Description: as §1
Brain MRI is used extensively in MS as a surrogate marker for clinical effects. Brain white matter gadolinium enhancing lesions are a biomarker for relapses.

In the case of `C[C@]12CC[C@@H]3c4ccc(O)cc4CC[C@H]3[C@@H]1C[C@@H](O)[C@@H]2O` [estriol], the “estriol blood levels induced” value in series [1] (estriol 8 mg per day every day plus norethindrone 0.7 mg a day for 14 days every 3 months, FIG. 6) is recorded as “about 10 ng/ml”. The “estriol levels in serum” value in series [1] (estriol-treated group, oral estriol 8 mg/day) is reported as “mid-pregnancy range”. Also, in series [2], the “Breast - Fibrocystic breast disease on clinical exam” value is recorded as 5 subjects and the “Uterine fibroids on ultrasound” value is 8 subjects.
Take “glatiramer acetate [Copaxone® plus placebo]”: in series [3] (FIG. 4, p=0.06 (estriol), p=0.90 (placebo)), the “EDSS scores, slope” value was −0.01. In series [3] (decrease = improvement), the “change in EDSS scores” value was “no change”. Also, the “change in 25-foot walk time” value in series [4] was “significantly increased”. In addition, in series [5], the “reduction in number of subjects with brain MRI scans positive for enhancing lesions” value is listed as 22%.
